Source: patent US10159252B2, “Fungicidal compounds and compositions” (AgroFresh Inc., priority 2015, dated 2018)
Structures can show the parent of a compound that is named as a salt.

Legend:
Penicillium expansum [1] = assay: In vivo volatile bioassay on inoculated fruit (apple, pear); settings: P. expansum, 10 mg/L headspace, sublimed, 3 day treatment plus additional 3 days at 21° C.
Protocol: (§1) To assess the in vivo activity of volatile antimicrobial compound of Sample 1 (see Example 1) in fruit, a volatile bioassay is developed using apple, pear, orange, strawberry, grape and blueberry. Two apples, two oranges, two pears, eight strawberries, sixteen grapes or thirty blueberries (per rep, in duplicate) are placed in a clamshell with the stem end facing up for all fruits except for strawberry (stem end facing downwards). A fresh wound is inoculated with 20 μL 1×10^6 per mL Penicillium expansum (P. expansum) spore suspension (apple and pear), 20 μL×1×10^6 per mL Penicillium digitatum (P. digitatum) spore suspension (orange), and 20 μL×1×10^6 (strawberry and grape) or 10 μL (blueberry) of 1×10^5 per mL Botrytis cinerea (B. cinerea) spore suspension. The clamshells are placed inside a 117 L Rubbermaid storage box (Cat #2244), and the lids closed.
(§2) Sample 1, prepared according to Example 1 and dissolved in acetone, is pipetted onto a cotton strip, where the acetone is allowed to evaporate for 5 min, and then introduced into the container by a sublimation device (copper tube heated to 200° C. with fan flow at 0.5 liters per minute (L/min)) to achieve a final headspace concentration of 10 mg/L). The containers are then held for 3 d at 21° C. After treatment, the fruits are held for an additional 3 d at 21° C., then evaluated for disease incidence (millimeter (mm) diameter of browning or water-soaked lesions) and pathogen sporulation (mm diameter) for apple, pear and orange, as well as Botrytis cinerea disease incidence (%) and severity (0 to 4) for strawberry, grape and blueberry. Results are summarized in Table 2 showing good in vivo antimicrobial control of three fungal pathogens on six different hosts when applied as a volatile fungicide. Results are also depicted in FIG. 1.

Penicillium expansum [2] = assay: In vitro volatile inhibition assay, 12-well plate, half-strength PDA; assay type: cell-based; settings: P. expansum, 3 d at 23° C.; for percent growth relative to control: volatile
Protocol: (§3) A 12-well microtiter plate (6.5 milliliter (mL) volume per well) is used for the in vitro inhibition assay for volatile antimicrobial compound of Sample 1 (see Example 1) against two plant fungal pathogens. A 3-mL volume of half-strength Potato Dextrose Agar (PDA) is added to each well. After cooling, 1 microliter (μL) of 1×10^5 spores per mL of Botrytis cinerea (B. cinerea) or Penicillium expansum (P. expansum) suspension is spotted to the center of the agar. A Whatman #1 filter disk (Cat. No. 1001-0155) is placed, in duplicate, on the underside of a polyethylene polymerase chain reaction (PCR) plate sealing film.
(§4) For determination of the minimum inhibitory concentration (MIC), the test compound is diluted in acetone, and the appropriate amount of compound added to disks in a dose dependent manner to achieve a final headspace concentration of 35.7 to 0.03 milligrams per liter (mg/L). The acetone is permitted to evaporate for 5 min. The headspace around the inoculum is then sealed inside the well by the film with the adhering disk containing the fungicide. The plates are inverted, placed over the treated disks and sealed to prevent any of the chemical from flaking from the disk and falling onto the inoculated agar. After 3 days (d) of storage at 23° C., cultures are evaluated for percent growth relative to control. Results are summarized in Table 1 showing the ability of benzoxaborole compound of Sample 1 to control the growth of two fungal plant pathogens through volatile activity.

Botrytis cinerea [3] = assay: as above; assay type: cell-based; settings: B. cinerea, 3 d at 23° C.; for percent growth relative to control: volatile
Protocol: as §3, §4

Botrytis cinerea [4] = assay: In vivo volatile bioassay on inoculated fruit (strawberry, grape, blueberry); settings: B. cinerea, 10 mg/L headspace, sublimed, 3 day treatment plus additional 3 days at 21° C.
Protocol: as §1, §2

Penicillium digitatum = assay: In vivo volatile bioassay on inoculated fruit (orange); settings: P. digitatum, 10 mg/L headspace, sublimed, 3 day treatment plus additional 3 days at 21° C.
Excerpt: To assess the in vivo activity of volatile antimicrobial compound of Sample 1 (see Example 1) in fruit, a volatile bioassay is developed using apple, pear, orange, strawberry, grape and blueberry. Two apples, two oranges, two pears, eight strawberries, sixteen grapes or thirty blueberries (per rep, in duplicate) are placed in a clamshell with the stem end facing up for all fruits except for strawberry (stem end facing downwards). […]
as §2, with “The containers are then held for 3 d at 21° C.” left out, “Results are summarized in Table 2 showing good in vivo antimicrobial control of three fungal pathogens on six different hosts when applied as a volatile fungicide. Results are also depicted in FIG. 1.” left out

[5] = headspace concentration 0.03 mg/L
[6] = headspace concentration 0.07 mg/L
[7] = headspace concentration 0.1 mg/L
[8] = headspace concentration 0.3 mg/L
[9] = headspace concentration 0.6 mg/L
[10] = headspace concentration 1.1 mg/L
[11] = headspace concentration 2.2 mg/L
[12] = headspace concentration 4.5 mg/L
[13] = headspace concentration 8.9 mg/L
[14] = headspace concentration 17.9 mg/L
[15] = headspace concentration 35.7 mg/L
[16] = Penicillium expansum, 72 h, applied as a volatile fungicide, headspace concentration
[17] = Botrytis cinerea, 72 h, applied as a volatile fungicide, headspace concentration

For `Fc1ccc2c(c1)CO[B-]2(F)F` [Sample 1, potassium 1,1,5-trifluoro-1,3-dihydro-2,1-benzoxaborolate salt], the “Browning (mm)” value (Penicillium expansum [1]; Apple) was 4.8 mm, the “Sporulation (mm)” value (Penicillium expansum [1]; Apple) was 7.3 mm and the “Browning (mm)” value (Penicillium expansum [1]; Pear) was 5.3 mm. For the same compound, the “Sporulation (mm)” value (Penicillium expansum [1]; Pear) was 4.3 mm, the “percent growth relative to control” value (Penicillium expansum [2]; [5]) was −2.7% and the “percent growth relative to control” value (Penicillium expansum [2]; [6]) was −1.9%. The “percent growth relative to control” value (Penicillium expansum [2]; [7]) was −3.3%, the “percent growth relative to control” value (Penicillium expansum [2]; [8]) was −8.2% and the “percent growth relative to control” value (Penicillium expansum [2]; [9]) was 12.9%. For the same compound, the “percent growth relative to control” value (Penicillium expansum [2]; [10]) was 56.2%, the “percent growth relative to control” value (Penicillium expansum [2]; [11]) was 73% and the “percent growth relative to control” value (Penicillium expansum [2]; [12]) was 100%. The “percent growth relative to control” value (Penicillium expansum [2]; [13]) was 100%, the “percent growth relative to control” value (Penicillium expansum [2]; [14]) was 100% and the “percent growth relative to control” value (Penicillium expansum [2]; [15]) was 100%. For the same compound, the EC50 (Penicillium expansum [2]; [16]) was 1.2 µg/mL, the MIC (Penicillium expansum [2]; [16]) was 4.5 µg/mL and the “percent growth relative to control” value (Botrytis cinerea [3]; [5]) was 0%. For the same compound, the “percent growth relative to control” value (Botrytis cinerea [3]; [6]) was 0%, the “percent growth relative to control” value (Botrytis cinerea [3]; [7]) was 0% and the “percent growth relative to control” value (Botrytis cinerea [3]; [8]) was 0%. The “percent growth relative to control” value (Botrytis cinerea [3]; [9]) was 64.8%, the “percent growth relative to control” value (Botrytis cinerea [3]; [10]) was 100% and the “percent growth relative to control” value (Botrytis cinerea [3]; [11]) was 100%. For the same compound, the “percent growth relative to control” value (Botrytis cinerea [3]; [12]) was 100%, the “percent growth relative to control” value (Botrytis cinerea [3]; [13]) was 100% and the “percent growth relative to control” value (Botrytis cinerea [3]; [14]) was 100%. The “percent growth relative to control” value (Botrytis cinerea [3]; [15]) was 100%, the EC50 (Botrytis cinerea [3]; [17]) was 0.5 µg/mL and the MIC (Botrytis cinerea [3]; [17]) was 1.1 µg/mL. For the same compound, the “Incidence (%)” value (Botrytis cinerea [4]; Blueberry) was 5.0%, the “Severity (0-4)” value (Botrytis cinerea [4]; Blueberry) was 0.06 and the “Incidence (%)” value (Botrytis cinerea [4]; Grape) was 23.3%. For the same compound, the “Severity (0-4)” value (Botrytis cinerea [4]; Grape) was 0.12, the “Incidence (%)” value (Botrytis cinerea [4]; Strawberry) was 6.3% and the “Severity (0-4)” value (Botrytis cinerea [4]; Strawberry) was 0.03. For the same compound, the “Sporulation (mm)” value (Penicillium digitatum) was 0.0 mm and the “Water soaked lesion (mm)” value (Penicillium digitatum) was 12.7 mm.
